Measurements reported in patent US9512139B2, “Conformationally constrained, fully synthetic macrocyclic compounds” (POLYPHOR AG, priority 2009, dated 2016).

Experiments:
[1] = molecular target: T1, Prostaglandin F (FP) Receptor (Homo sapiens, UniProt P43088); assay: Ca2+ assay (FLIPR) for the GPCR prostaglandin F (FP) receptor, agonist and antagonist mode; format: cell-based; conditions: 10 μM
T1 construct: host or cells: Ca2+ optimized hematopoietic cell lines (rat)
Protocol: Biological and Pharmacological Methods 1. Ca^2+ Assays for the GPCRs Motilin Receptor, Prostaglandin F (FP) Receptor, 5-hydroxytryptamine 2B (5-HT2B) Receptor, and Purinoreceptor P2Y1
Assays were performed using on a FLIPR^TETRA fluorometric imaging plate reader (Molecular Devices) with ScreenWorks Version 2 (Molecular Devices) as device operating and data analysis software.
Dose dependent agonist and antagonist activities were determined. Percentage activation and percentage inhibition values were determined.
Percentage activation was determined upon initial addition of the sample compounds followed by 10 minutes incubation at 25° C. Following compound incubation, reference agonists were added at EC80 to determine percentage inhibition.
Reference agonists were purchased from reputable commercial vendors and prepared according to each ligand's specifications. All handling of ligands were done to ensure proper control throughout the experiments.
Example compounds were weighed on a Microbalance (Mettler MX5) and dissolved in 100% DMSO to a final concentration of 2.5 mM and subsequently diluted into the assay buffer.
The Assay buffer was a supplemented HBSS (Hank's Balanced Salt Solution). HBSS was supplemented with 20 mM HEPES (4-(2-hydroxyethyl)-piperazin-1-ethansulfonic acid) and 2.5 mM Probenecid (Sigma P8761).
GPCR assays were performed using Ca^2+ optimized hematopoietic cell lines (rat) with cultures never exceeding 90% confluency. Cells were harvested and seeded (from cultures at less than 90% confluency) at 50000 cells/well for a 96-well plate (12500 cells/well for 384). After seeding, the assay plates were incubated for forty-five (45) minutes at room temperature. After room temperature incubation, the assay plates were incubated at 37° C. 5% CO2 for 24 hours prior to assaying.
All GPCR assays were performed using Fluo-8 Ca^2+ dye. Ca^2+ dye was prepared at 1× dye concentration in GPCR assay buffer. After 24 hours of incubation, cells were washed with GPCR assay buffer, and then Ca^2+-dye (100 μL/well) was added.
The plates were incubated for 90 minutes at 30° C. 5% CO2 prior to FLIPR assay.
Compound plates were prepared to add 50 μL/well during the agonist assay mode. During the FLIPR assay, 50 μL/well from the compound plate was diluted 3-fold into the existing 100 μL/well from the dye loading step. Therefore all compounds were prepared as 3× the final concentration desired in the assay.
After completion of the first single addition assay run, assay plate was removed from the FLIPR Tetra and placed at 25° C. for seven (7) minutes before antagonist assay.
Using the EC80 values determined during the agonist assay, all pre-incubated sample compound and reference antagonist (if applicable) wells were stimulated at the EC80 of the reference agonist. As reference ligands for the first three assays their obvious natural ligands motilin, prostaglandin F2α, and serotonin (5-HT, 5-Hydroxytryptamine) were used; and for the P2Y1 assay 2MeSATP (2-methyl-thio-adeno-sine 5′-triphosphate, i.e. (2R,3S,4R)-5-(6-amino-2-methylsulfanyl-purin-9-yl)-3,4-dihydroxy-tetrahydrofuran-2-yl]methyl (hydroxy-phosphonooxy-phosphoryl)hydrogen phosphate) was applied.
After the addition of the reference agonist fluorescence was monitored for 180 sec using FLIPR Tetra.
Data Analysis and Results:
From the FLIPR data, with negative control correction enabled, the maximum statistic for each well was exported and percentage activation relative to Emax control was calculated.

in vitro [2] = format: in vitro ADME, mouse; conditions: both, CD-1, mouse, plasma, 10 µM; for Plasma Stability 240 min mouse [% remain.]: 4 h
[3] = Metabolic stability assay, human microsomes; format: in vitro ADME; conditions: human, microsomes; for half-life at 10 µM: both sexes; for Metabolic Stability 60 min hum [% remain.] / Metabolic Stability T½ [min] hum: both, 10 µM; for Metabolic Stability 60 min hum [% remain.]: 1 h
Protocol: (§1) 4. Plasma and Metabolic Stability Assays
(§2) The assays were conducted according to literature precedents (F. P. Guengerich, Analysis and Characterization of Enzymes; in: Principles and Methods of Toxicology; A. W. Hayes (Ed.) Raven Press: New York, 1989, 777-813; R. Singh et al., In vitro metabolism of a potent HIV-protease inhibitor (141W94) using rat, monkey and human liver S9, Rapid Commun. Mass Spectrom. 1996, 10, 1019-1026).
(§3) Metabolic Stability Assay
(§4) Microsomes from a human 50 donor mixed gender pool and 1:1 mixtures of microsomes from CD-1 mouse single-gender pools are purchased from Celsis (Belgium). The enzymatic reaction is performed in a buffer containing an NADPH regeneration system and microsomes with the following end concentrations: 100 mM potassium phosphate buffer (all from Sigma), 1 mg/mL glucose-6-phosphate, 1 mg/mL β-nicotinamide adenine dinucleotide phosphate (NADP), 0.65 mg/mL magnesium chloride, 0.8 units/mL of glucose-6-phosphate dehydrogenase (prediluted with 5 mM citrate buffer), 10 μM compound and 1 mg/ml microsomal protein. Compounds are incubated at 37° C. in duplicates and samples are taken after 0, 20 and 60 minutes. After acetonitrile precipitation (2 volumes) and HPLC/MS/MS analysis metabolic turnover is expressed in % of the initial 0 minutes value and half life T½ (min) is calculated. Verapamil for human and propranolol for mouse are used as reference and are assayed with every experimental set.

in vitro [4] = format: in vitro ADME, human; conditions: human, plasma, 10 µM; for Plasma Stability 240 min hum [% remain.]: 4 h
[5] = Metabolic stability assay, CD-1 mouse microsomes; format: in vitro ADME; conditions: CD-1, mouse, microsomes; for half-life at 10 µM: both sexes; for Metabolic Stability 60 min mouse [% remain.] / Metabolic Stability T½ [min] mouse: both, 10 µM; for Metabolic Stability 60 min mouse [% remain.]: 1 h
Protocol: as §1, §2, §3, §4
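For Plasma Stability 240 min mouse [% remain.] in this document: sodium citrate stabilized mouse plasma, parent compound quantified by HPLC/MS/MS relative to its peak area at time zero, run in triplicate.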
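For Plasma Stability T½ [min] mouse in this document: sodium citrate stabilized mouse plasma, parent compound quantified by HPLC/MS/MS relative to its peak area at time zero, run in triplicate.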

T1 sequence (P43088 whole entry): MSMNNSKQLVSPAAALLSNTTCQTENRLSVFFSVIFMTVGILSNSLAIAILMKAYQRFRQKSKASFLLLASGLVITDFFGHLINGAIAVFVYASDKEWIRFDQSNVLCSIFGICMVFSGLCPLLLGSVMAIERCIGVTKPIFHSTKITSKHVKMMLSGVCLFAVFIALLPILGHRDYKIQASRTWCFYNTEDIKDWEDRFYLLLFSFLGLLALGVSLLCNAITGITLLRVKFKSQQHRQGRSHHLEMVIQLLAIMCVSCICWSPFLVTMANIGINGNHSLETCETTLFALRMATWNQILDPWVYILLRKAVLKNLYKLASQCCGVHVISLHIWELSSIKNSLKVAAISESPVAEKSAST

Structure (SMILES)	inhibition at 10 µM [1] [%]	Plasma Stability T½ [min] mouse (in vitro [2]) [min]	Plasma Stability 240 min mouse [% remain.] (in vitro [2])	half-life at 10 µM [3] [h]	Metabolic Stability 60 min hum [% remain.] [3] [% remain.]	Plasma Stability T½ [min] hum (in vitro [4]) [min]	Plasma Stability 240 min hum [% remain.] (in vitro [4])	half-life at 10 µM [5] [h]	Metabolic Stability 60 min mouse [% remain.] [5] [% remain.]	Metabolic Stability T½ [min] hum [3] [min]	Metabolic Stability T½ [min] mouse [5] [min]
CN1CCC[C@H](NC(=O)Cc2ccc3ccccc3c2)C(=O)N2C[C@@H](NC(=O)Oc3ccccc3)C[C@H]2COc2cccc(c2)C1=O [Ex. 539, phenyl N-[(4S,6S,10S)-14-methyl-10-{[2-(2-naphthyl)acetyl]amino}-9,15-dioxo-2-oxa-8,14-diazatricyclo[14.3.1.0^4,8]icosa-1(20),16,18-trien-6-yl]carbamate]	59										
CCN(CC)[C@@H]1C[C@H]2COc3ccc(cc3)C(=O)N(C)[C@H](C(=O)NCc3ccc4ccccc4c3)CCC(=O)N(C)CC(=O)N2C1 [Ex. 262, (4S,6R,15S)-6-(diethylamino)-11,16-dimethyl-N-(2-naphthylmethyl)-9,12,17-trioxo-2-oxa-8,11,16-triazatricyclo[16.2.2.0^4,8]docosa-1(20),18,21-triene-15-carboxamide]		> 240	93	0.35	0	> 240	100	0.383	4		
CCCCCCCCCC(=O)N[C@H]1C[C@H]2COc3ccc(F)cc3C(=O)N(C)[C@@H](C(=O)NCc3ccc4ccccc4c3)CCC(=O)N(C)CC(=O)N2C1 [Ex. 102, (2S,11R,19aS)-2-(decanoylamino)-15-fluoro-7,12-dimethyl-N-(2-naphthylmethyl)-5,8,13-trioxo-2,3,6,7,8,9,10,11,12,13,19,19a-dodecahydro-1H,5H-pyrrolo[2,1-c][1,4,7,12] benzoxatriazacyclopentadecine-11-carboxamide]		> 240	75	0.383	4	> 240	65	0.7	39		
CN1CC(=O)N2C[C@H](NC(=O)CCC(=O)O)C[C@H]2COc2ccc(cc2)C(=O)N(C)[C@H](C(=O)NCc2ccncc2)CCC1=O [Ex. 267, 4-{[(4S,6R,15S)-11,16-dimethyl-9,12,17-trioxo-15-{[(4-pyridinylmethyl)amino]carbonyl}-2-oxa-8,11,16-triazatricyclo[16.2.2.0^4,8]docosa-1(20),18,21-trien-6-yl]amino}-4-oxobutanoic acid]		> 240	79		99	> 240	75		100	> 60	> 60
CCCCC(=O)N[C@@H]1C[C@H]2COc3ccc(F)cc3C(=O)N(C)[C@H](C(=O)N(C)CCN(C)C)CCC(=O)N(C)CC(=O)N2C1 [Ex. 78, (2R,11S,19aS)-N-[2-(dimethylamino)ethyl]-15-fluoro-N,7,12-trimethyl-5,8,13-trioxo-2-(pentanoylamino)-2,3,6,7,8,9,10,11,12,13,19, 19a-dodecahydro-1H,5H-pyrrolo[2,1-c][1,4,7,12]benzoxatriazacyclopentadecine-11-carboxamide]		> 240	100		78	> 240	65		100	> 60	> 60

The remaining lines, values ahead:

inhibition at 10 µM [1] [%]	Plasma Stability T½ [min] mouse (in vitro [2]) [min]	Plasma Stability 240 min mouse [% remain.] (in vitro [2])	half-life at 10 µM [3] [h]	Metabolic Stability 60 min hum [% remain.] [3] [% remain.]	Plasma Stability T½ [min] hum (in vitro [4]) [min]	Plasma Stability 240 min hum [% remain.] (in vitro [4])	half-life at 10 µM [5] [h]	Metabolic Stability 60 min mouse [% remain.] [5] [% remain.]	Metabolic Stability T½ [min] hum [3] [min]	Metabolic Stability T½ [min] mouse [5] [min]	Structure (SMILES)
80											CN1CCC[C@H](NC(=O)Cc2cccc3ccccc23)C(=O)N2C[C@@H](NC(=O)Cc3ccc(-c4ccccc4)cc3)C[C@H]2COc2cccc(c2)C1=O [Ex. 545, 2-[1,1′-biphenyl]-4-yl-N-[(4S,6S,10S)-14-methyl-10-{[2-(1-naphthyl)acetyl]amino}-9,15-dioxo-2-oxa-8,14-diazatricyclo[14.3.1.0^4,8]icosa-1(20),16,18-trien-6-yl]acetamide]
65											CN1CCC[C@H](NC(=O)Cc2ccc3ccccc3c2)C(=O)N2C[C@@H](NC(=O)Cc3cccc(Oc4ccccc4)c3)C[C@H]2COc2cccc(c2)C1=O [Ex. 541, N-[(4S,6S,10S)-14-methyl-9,15-dioxo-6-{[2-(3-phenoxyphenyl)acetyl]amino}-2-oxa-8,14-diazatricyclo[14.3.1.0^4,8]icosa-1(20),16,18-trien-10-yl]-2-(2-naphthyl)acetamide]
	> 240	83		100	> 240	91		95	> 60	> 60	CN1CCC[C@H](N2CCN(S(C)(=O)=O)CC2)C(=O)N2C[C@@H](O)C[C@H]2COc2cccc(c2)C1=O [Ex. 583, (4S,6S,10S)-6-hydroxy-14-methyl-10-[4-(methylsulfonyl)piperazino]-2-oxa-8,14-diazatricyclo[14.3.1.0^4,8]icosa-1(20),16,18-triene-9,15-dione]
	> 240	74		100	> 240	92		98	> 60	> 60	CN1CC(=O)N2C[C@H](NC(=O)CN3CCCC3)C[C@H]2COc2ccc(cc2)C(=O)N(C)[C@H](C(=O)NCc2ccncc2)CCC1=O [Ex. 266, (4S,6R,15S)-11,16-dimethyl-9,12,17-trioxo-N-(4-pyridinylmethyl)-6-{[2-(1-pyrrolidinyl)acetyl]amino}-2-oxa-8,11,16-triazatricyclo[16.2.2.0^4,8]docosa-1(20),18,21-triene-15-carboxamide]
	> 240	96		100	> 240	100		98	> 60	> 60	CC(=O)N1CCN([C@H]2CCCN(C)C(=O)c3cccc(c3)OC[C@@H]3C[C@H](O)CN3C2=O)CC1 [Ex. 582, (4S,6S,10S)-10-(4-acetylpiperazino)-6-hydroxy-14-methyl-2-oxa-8,14-diazatricyclo[14.3.1.0^4,8]icosa-1(20),16,18-triene-9,15-dione]
